Where two headings read alike, the source gives them in different places. Some results are limits rather than exact numbers.

The test system of assay [1] is secreted IL-8 by whole blood activated with TNF-α. Briefly: Inhibition of TNF-α induced IL-8 in 50% human whole blood. The class given is cell-based. The conditions noted are these: TNF-α (1 nM) induced IL-8, 50% human whole blood, read-out: WB TNF/IL8 IC50. The procedure: Inhibition of TNF-α Induced IL-8 in 50% Human Whole Blood
Test compounds were evaluated in vitro for the ability to inhibit the production of secreted IL-8 by whole blood activated with TNF-α. Fresh human whole blood was obtained from healthy, non-medicated volunteers in sodium heparin tubes.
Compound Dilution—Assay Procedure
100 ul heparinized whole blood is plated into wells of 96 well flat bottom plates. 50 ul of either 4× compound or DMSO control (Final DMSO concentration is 0.1%) are added to the appropriate wells. Plates are incubated for 1 hour at 37 degrees Celsius. 50 ul of 4×TNF-α ([…], for a final concentration of 1 nM) or control (media alone) is added to the appropriate wells (Total volume=200 ul). Plates are incubated overnight (16-18 hours). 100 ul of supernatant is collected and stored in 96-well round bottom polypropylene plates at −80 degrees Celsius or assayed immediately for IL-8.
Cytokines are measured on antibody (Ab) sandwich ECL based 96-well detection plates. 20 ul of supernatant are added to plate and plate is sealed and shaken at RT for 1 hour. 130 ul of detection Ab cocktail is added and plates are sealed and shaken for 1 hour in the dark at RT. Plates are read on MSD Sector HTS instrument. Data are analyzed and IC50 values generated using Activity Base and XI-fit programs.

A further assay deals with recombinant human p38α (Homo sapiens, UniProt Q16539). Briefly: Purified and activated recombinant human p38α HTRF kinase assay. The class given is biochemical. Particulars: 1 nM p38α, 50 μM ATP, GST-ATF2 substrate, read-out: p38a IC50. Here is the method: Purified and Activated Recombinant Human p38α Assay
• Kinase Reaction Buffer: Kinase reaction buffer for p38α HTRF assays consists of 50 mM Tris-pH 7.5, 5 mM MgCl2, 0.1 mg/mL BSA, 100 μM Na3VO4 and 0.5 mM DTT. • HTRF Detection Buffer: HTRF detection buffer contains 100 mM HEPES-pH 7.5, 100 mM NaCl, 0.1% BSA, 0.05% Tween-20, and 10 mM EDTA. • Serial Dilution of Compounds: Compounds were dissolved in 100% DMSO and serially diluted (3 fold, 10 point) in a polypropylene 96-well microtiter plate (drug plate). The final starting concentration of compounds in the p38α enzymatic assays was 1 μM. Columns 6 and 12 (HI controls and LO controls respectively) in the drug plate were reserved as controls and contained only DMSO. • Kinase Reaction The p38α kinase reactions were carried out in a polypropylene 96-well black round bottom assay plate in total volume of 30 μL kinase reaction buffer. Appropriate concentration of purified and activated enzyme (recombinant human) was mixed with indicated concentration of ATP and 100 nM GST-ATF2-Avitag, in the presence or absence (HI control) of Compound. See table below for actual concentrations. In the absence of substrate, the background was measured as LO control. The reaction was allowed to incubate for 1 hour at RT. • Assay Reagent Concentrations: The final reagent concentrations were 1 nM p38α and 50 μM ATP. […] After 60 minutes incubation at room temperature, the assay plate was read in a Discovery Plate Reader. The wells were excited with coherent 320 nm light and the ratio of delayed ([…] post excitation) emissions at […] (native europium fluorescence) and 665 nm (europium fluorescence transferred to allophycocyanin—an index of substrate phosphorylation) was determined (Park et al, 1999). • Data Analysis: The proportion of substrate phosphorylated in the kinase reaction in the presence of compound compared with that phosphorylated in the presence of DMSO vehicle alone (HI control) was calculated using the formula: % control (POC)=(compound−average LO)/(average HI−average LO)*100. Data (consisting of POC and inhibitor concentration in μM) was fitted to a 4-parameter equation (y=A+((B−A)/(1+((x/C)^D))), where A is the minimum y (POC) value, B is the maximum y (POC), C is the x (compound concentration) at the point of inflection and D is the slope factor, using a Levenburg-Marquardt non-linear regression algorithm.
The inhibition constant (Ki) of the inhibitor was estimated from the IC50 (compound concentration at the point of inflection C) using the Cheng-Prussof equation: Ki=IC50/(1+S/Km), where S is the ATP substrate concentration, and Km is the Michaelis constant for ATP as determined experimentally. All results were expressed as the mean±the standard error of the mean. Data acquisition and non-linear regression algorithms were performed using Activity Base v5.2 and XL-fit software v4.1 respectively. All data was archived using Activity Base v5.2 software.
A general note: In TR-FRET formats the signal depends on donor and acceptor labels being close together.

The test system of assay [2] is TNF-α secretion by LPS-treated THP1 cells. The assay is described as follows: Lipopolysaccharide-activated THP1 cell TNF production assay. It is filed as cell-based. Particulars: Homo sapiens, THP-1; LPS, 3 hours, THP1 cells; read-out: IC50 in the THP-1 cellular TNF production assay. Here is the method:
Lipopolysaccharide-Activated THP1 Cell TNF Production Assay
THP1 cells were resuspended in fresh THP1 media (RPMI 1640, 10% heat-inactivated FBS, 1×PGS, 1×NEAA, plus 30 μM βME) at a concentration of 1.5×10^6 cells per mL. One hundred microliters of cells per well were plated in a polystyrene 96-well tissue culture plate. 1.5 micrograms per mL of bacterial LPS was prepared in THP1 media and transferred to the first 11 columns of a 96-well polypropylene plate. Column 12 contained only THP1 media for the LO control. Compounds were dissolved in 100% DMSO and serially diluted 3 fold in a polypropylene 96-well microtiter plate (drug plate). Columns 6 and 12 were reserved as controls (HI controls and LO controls respectively) and contained only DMSO. 10 μL of LPS followed by one microliter of inhibitor compound from the drug plate was transferred to the cell plate. The treated cells were induced to synthesize and secrete TNF-α in a 37° C. humidified incubator with 5% CO2 for 3 hours. Fifty microliters of conditioned media was transferred to a 96-well MULTI-ARRAY™ 96-well small spot plate—custom coated with MAB610 containing 100 μL of 2× Read Buffer P supplemented with 0.34 nM AF210NA polyclonal Ab labeled with ruthenium (MSD-Sulfo-TAG™-NHS ester). After an overnight incubation at room temperature with shaking, the reaction was read on the Sector Imager™ 6000. […] The amount of secreted TNF-α in the presence of AMG compounds compared with that in the presence of DMSO vehicle alone (HI control) was calculated using the formula: % control (POC)=(cpd−average LO)/(average HI−averageLO)*100. Data (consisting of POC and inhibitor concentration in μM) was fitted to a 4-parameter equation (y=A+((B−A)/(1+((x/C)^D))), where A is the minimum y (POC) value, B is the maximum y (POC), C is the x (cpd concentration) at the point of inflection and D is the slope factor) using a Levenburg-Marquardt non-linear regression algorithm.

recombinant human p38α, sequence (Q16539 whole entry): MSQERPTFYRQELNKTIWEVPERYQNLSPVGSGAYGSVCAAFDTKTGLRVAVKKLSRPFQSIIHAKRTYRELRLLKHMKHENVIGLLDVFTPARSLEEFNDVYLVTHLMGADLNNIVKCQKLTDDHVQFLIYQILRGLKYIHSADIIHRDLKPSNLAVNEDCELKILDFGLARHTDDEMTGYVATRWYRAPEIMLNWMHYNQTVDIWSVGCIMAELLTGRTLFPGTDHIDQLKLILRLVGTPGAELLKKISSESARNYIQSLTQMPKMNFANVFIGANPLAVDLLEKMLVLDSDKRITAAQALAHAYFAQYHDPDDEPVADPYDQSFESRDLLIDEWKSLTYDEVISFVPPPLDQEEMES

For the compound `Cn1c(=O)c(-c2cc(C#N)ccc2Cl)cc2cnn(-c3c(F)cccc3F)c21` [Example 33, 4-chloro-3-(1-(2,6-difluorophenyl)-7-methyl-6-oxo-6,7-dihydro-1H-pyrazolo[3,4-b]pyridin-5-yl)benzonitrile], in assay [1] (Homo sapiens), the IC50 was at least 2500 nM.
On the same count and under the same terms, under `Cc1ccc(C(=O)NC2CC2)cc1-c1cc2cnn(S(=O)(=O)C3CC3)c2n(C)c1=O` [Example 47, N-cyclopropyl-3-(1-(cyclopropylsulfonyl)-7-methyl-6-oxo-6,7-dihydro-1H-pyrazolo[3,4-b]pyridin-5-yl)-4-methylbenzamide] stands 662 nM.
On to `Cc1cnc(C(=O)NC2CC2)cc1-c1cc2cnn(-c3c(F)cccc3F)c2n(C)c1=O` [Example 19, N-cyclopropyl-4-(1-(2,6-difluorophenyl)-7-methyl-6-oxo-6,7-dihydro-1H-pyrazolo[3,4-b]pyridin-5-yl)-5-methyl-2-pyridinecarboxamide], for which the values for the IC50 (on recombinant human p38α; in assay [2]) were 18 nM and at most 175 nM, respectively.
Taken in the same sequence, the figures for `Cc1ccc(C(=O)NC2CC2)cc1-c1cc2cnn(-c3ccc(F)cc3)c2n(C)c1=O` [Example 52, N-cyclopropyl-3-(1-(4-fluorophenyl)-7-methyl-6-oxo-6,7-dihydro-1H-pyrazolo[3,4-b]pyridin-5-yl)-4-methylbenzamide] were 6.1 nM and at most 175 nM.
For `Cc1c(F)cc(C(=O)NC2CC2)cc1-c1cc2cnn(-c3cc(F)ccc3F)c2n(C)c1=O` [Example 23, N-cyclopropyl-3-(1-(2,5-difluorophenyl)-7-methyl-6-oxo-6,7-dihydro-1H-pyrazolo[3,4-b]pyridin-5-yl)-5-fluoro-4-methylbenzamide], the figures for the IC50 (at recombinant human p38α; in assay [2]) were 3.9 nM and at most 175 nM, respectively.
For “N-cyclopropyl-3-(1-(2,4-difluorophenyl)-7-methyl-6-thioxo-6,7-dihydro-1H-pyrazolo[3,4-b]pyridin-5-yl)-4-methylbenzenecarbothioamide [Example 51]”, the IC50 in assay [1] was 225 nM.
In the case of `Cc1ccc(C(=O)NC2CC2)cc1-c1cc2cnn(-c3ccccc3C)c2n(C)c1=O` [Example 14, N-cyclopropyl-4-methyl-3-(7-methyl-1-(2-methylphenyl)-6-oxo-6,7-dihydro-1H-pyrazolo[3,4-b]pyridin-5-yl)benzamide], the results for the IC50 (at recombinant human p38α; in assay [2]) were 4.2 nM and at most 175 nM, respectively.
Consider `Cc1ccc(I)cc1-c1cc2cnn(-c3c(F)cccc3F)c2n(C)c1=O` [Example 40, 1-(2,6-difluorophenyl)-5-(5-iodo-2-methylphenyl)-7-methyl-1,7-dihydro-6H-pyrazolo[3,4-b]pyridin-6-one], for which the IC50 in assay [1] (Homo sapiens) is at least 2500 nM.
For the compound `Cc1c(F)cc(C(=O)NC2CC2)cc1-c1cc2cnn(-c3ccccc3F)c2n(C)c1=O` [Example 9, N-cyclopropyl-3-fluoro-5-(1-(2-fluorophenyl)-7-methyl-6-oxo-6,7-dihydro-1H-pyrazolo[3,4-b]pyridin-5-yl)-4-methylbenzamide], the IC50 on recombinant human p38α is 2.2 nM; in assay [2], at most 175 nM.
Taken in the same sequence, the figures for `Cc1c(F)cc(C(=O)NC2CC2)cc1-c1cc2cnn(-c3ccc(F)cc3F)c2n(C)c1=O` [Example 11, N-cyclopropyl-3-(1-(2,4-difluorophenyl)-7-methyl-6-oxo-6,7-dihydro-1H-pyrazolo[3,4-b]pyridin-5-yl)-5-fluoro-4-methylbenzamide] were 2.6 nM and at most 175 nM.
Taken in the same sequence, the figures for `Cc1ccc(C(=O)NC2CC2)cc1-c1cc2cnn(-c3cc(F)ccc3F)c2n(C)c1=O` [Example 24, N-cyclopropyl-3-(1-(2,5-difluorophenyl)-7-methyl-6-oxo-6,7-dihydro-1H-pyrazolo[3,4-b]pyridin-5-yl)-4-methylbenzamide] were 6.2 nM and at most 175 nM.
For the compound `Cc1ccc(I)cc1-c1cc2cnn(-c3ccc(F)cc3F)c2n(C)c1=O` [Example 43, 1-(2,4-difluorophenyl)-5-(5-iodo-2-methylphenyl)-7-methyl-1,7-dihydro-6H-pyrazolo[3,4-b]pyridin-6-one], in assay [1] (Homo sapiens), the IC50 was at least 2500 nM.

The values are drawn from patent publication US7846944B2, “Pyrazolo-pyridinone compounds and methods of use thereof” (Amgen Inc., priority 2007, dated 2010).
